Consider 5 compounds from patent publication US20020040005A1, “Composition and method of treating cancer” (priority 1995, published 2002).

The subject of one data set is HeLa cells. The following applies: cited from earlier work; for cell growth: in vitro, dose dependently.
The test system of a further data set is Raji lymphoma cells. The following applies: cited from earlier work; for cell growth: in vitro, dose dependently.
The subject of data set [1] is 12-O-tetradecanoyl-phorbol-13-acetate (TPA) effects in mouse epidermis. The following applies: applied topically to mouse skin; cited from earlier work.
The test system of data set [2] is skin tumors promoted by TPA. The following applies: two-step initiation-promotion protocol; cited from earlier work.
The subject of another data set is Prostate Carcinoma. In words: Clinical experimental trials in Cuba, voluntary patients: prostate carcinoma. It counts as in vivo, human. The following applies: 10% tannic acid. The source says: (§1) The following clinical data was collected on voluntary patients during clinical experimental trials in Cuba. A 10% concentration of tannic acid was used in all of the clinical studies set forth below.

The test system of another data set is Breast carcinoma. Briefly: Clinical experimental trials in Cuba, voluntary patients: breast carcinoma. The following applies: for clinical outcome: terminal. It counts as in vivo, human.
Source text: as §1

For a further data set, the system named is Colon Carcinoma. In words: Clinical experimental trials in Cuba, voluntary patients: colon carcinoma. The class given is in vivo, human.
Source text: as §1

A further data set has as its system Carcinoma of the uterus. In words: Clinical experimental trials in Cuba, voluntary patients: carcinoma of the uterus. The class given is in vivo, human. The following applies: for clinical outcome: one year.
Source text: as §1

Data set [3] relates to Acute Lymphocytic Leukemia. In words: Clinical experimental trials in Cuba, voluntary patients: acute lymphocytic leukemia. The class given is in vivo, human. The following applies: for time to relapse after completion of therapy: leukemia cells encysted in the testes.
Source text: as §1

Data set [4] deals with Cancerous Lesion of the Tongue. Briefly: Clinical experimental trials in Cuba, voluntary patients: cancerous lesion of the tongue. The following applies: Patient #10, conventional treatment ineffective; 3 months at stage 1 dosage. It counts as in vivo, human.
Source text: as §1

A further data set deals with Carcinoma of penis. Briefly: Clinical experimental trials in Cuba, voluntary patients: carcinoma of penis. The class given is in vivo, human. The following applies: Patient #11, metastasized, terminal; maximum levels after surgery, one year.
Source text: as §1

The test system of another data set is Hodgkin's Lymphoma. Briefly: Clinical experimental trials in Cuba, voluntary patients: Hodgkin's lymphoma. It counts as in vivo, human. The following applies: Patient #14, chemotherapy discontinued, considered terminal; one year.
Source text: as §1

The test system of the next data set is Monoblastic Leukemia. Briefly: Clinical experimental trials in Cuba, voluntary patients: monoblastic leukemia. The class given is in vivo, human. The following applies: Patient #17, no improvement with chemotherapy; maximum levels, one year.
Source text: as §1

Data set [5] concerns Liposarcoma of the right thigh. Briefly: Clinical experimental trials in Cuba, voluntary patients: liposarcoma. It counts as in vivo, human. The following applies: Patient #18, two unsuccessful operations; maximum levels, one year.
Source text: as §1

For a further data set, the system named is Multiple Myelomas. In words: Clinical experimental trials in Cuba, voluntary patients: multiple myelomas. The class given is in vivo, human.
Source text: as §1

In data set [6] the test system is Hypernephroma (Cancer of Kidney). In words: Clinical experimental trials in Cuba, voluntary patients: hypernephroma. It counts as in vivo, human.
Source text: as §1

The test system of another data set is Carcinoma of the Bladder. Briefly: Clinical experimental trials in Cuba, voluntary patients: carcinoma of the bladder. The class given is in vivo, human.
Source text: as §1

Data set [7] concerns epidermal PAH metabolism, PAH-induced skin tumorigenesis. The following applies: applied topically to Sencar mice; cited from earlier work.

In the case of `O=C(/C=C/c1ccc(O)c(O)c1)c1ccc(O)cc1O` [Butein], the growth inhibition with HeLa cells (10 microM, cell line not stated, more effective on HeLa cells) is 30%.
Take `CC1=C(/C=C/C(C)=C/C=C/C(C)=C/CO)C(C)(C)CCC1` [Retinol, reference compound]: the cell proliferation entry is reported as “inhibited cell proliferation completely” in the data set with HeLa cells (100 microM, HeLa) and “inhibited cell proliferation completely” in the data set with Raji lymphoma cells (100 microM).
Consider `O=c1oc2c(O)c(O)cc3c(=O)oc4c(O)c(O)cc1c4c23` [ellagic acid, reference compound], for which, in data set [1], the “TPA-induced DNA synthesis” value is “inhibited”, the TPA-induced hydroperoxide production result is reported as “inhibited” and the “TPA-induced ornithine decarboxylase activity” value is given as “inhibited”. The “incidence and yield of skin tumors promoted by TPA” value in data set [2] is listed as “inhibited”.
On to `O=C(O)c1cc(O)c(O)c(O)c1` [gallic acid, reference compound], for which the cell growth result in the data set with HeLa cells (HeLa) and in the data set on Raji lymphoma cells was “inhibited” throughout.
As to `O=C(OC[C@H]1O[C@@H](OC(=O)c2cc(O)c(O)c(OC(=O)c3cc(O)c(O)c(O)c3)c2)[C@H](OC(=O)c2cc(O)c(O)c(OC(=O)c3cc(O)c(O)c(O)c3)c2)[C@@H](OC(=O)c2cc(O)c(O)c(OC(=O)c3cc(O)c(O)c(O)c3)c2)[C@@H]1OC(=O)c1cc(O)c(O)c(OC(=O)c2cc(O)c(O)c(O)c2)c1)c1cc(O)c(O)c(OC(=O)c2cc(O)c(O)c(O)c2)c1` [tannic acid], the clinical outcome with Prostate Carcinoma (Patient #1, inoperative, maximum dosage, first treatment period three months) was “Cancer was cured”; in the data set on Breast carcinoma (Patient #6, metastasis in skeletal system, lungs and liver, maximum therapy, one year), “they were cured of cancer in all organs”; with Breast carcinoma (Patient #16, metastasis in both lungs and lymph nodes, maximum levels, one and one half year), “the Doctor declared patient cured”; in the data set on Colon Carcinoma (Patient #9, tumor not removed, no chemotherapy or radiation, maximum level, one year) it was “Tumor disappeared and has not returned”; in the data set on Carcinoma of the uterus (Patient #5, metastatic growth throughout internal organs, terminal, maximum levels) it was “They were cured of the cancer throughout their body”; in the data set with Carcinoma of the uterus (Patient #7, refused further radiation, maximum dosage, no other treatments), “Semi-annual checkups reveal no relapse”. Moreover, the clinical outcome was “The lesion healed and the tissue of the tongue was restored to normal” in [4]; “They have had no relapse and is cured of the cancer” with Carcinoma of penis; “they were cured of disease” in the data set on Hodgkin's Lymphoma; “They were cured of monoblastic Leukemia and has had no relapse” with Monoblastic Leukemia; “They were cured of cancer, and has had no relapse” in data set [5]; “declared cured of cancer” with Carcinoma of the Bladder (Patient #21, at 10 months). The catheter removal result in the data set on Prostate Carcinoma (Patient #1, two weeks after initiation of therapy) is reported as “catheter was removed”. The “clinical outcome (metastatic growth after surgery)” value with Breast carcinoma (Patient #2, after surgery on left breast, minimal 3 month period, 10% tannic acid) was “No additional cancerous growths were detected anywhere in their body”. Besides, the tumor size result in the data set with Breast carcinoma (Patient #3, tumor 5 cms by 5 cms, no surgery, maximum levels, after first three month interval, 10% tannic acid) is recorded as “Tumor diminished in size after first three month interval to the point where it was very difficult to detect by manual examination”. The long-term outcome in the data set on Breast carcinoma (Patient #3, therapy continued for one year) is reported as “Cancer never returned to this day”. The “clinical outcome at end of therapy” value in the data set with Breast carcinoma (Patient #15, left mammary gland removed, one year) is “no cancer was detected”. Also, the regular checkups result in the data set on Colon Carcinoma (Patient #4, maximum therapy along with chemotherapy) is given as “all have been negative”. Besides, the blood work result in the data set with Colon Carcinoma (Patient #4, maximum therapy simultaneously with 72 chemotherapy dosages) is given as “normal”. Also, the “outcome of readministered therapy” value was “They were cured of uterine cancer” with Carcinoma of the uterus (Patient #15, carcinoma of the uterus discovered two years after first therapy, readministered one year); “patient was cured” in data set [3] (Patient #8, year long treatment period after relapse); “Patient was cured and subsequent check-ups have been negative” in data set [3] (Patient #12, readministered for one year after relapse). In addition, the “outcome of first therapy period” value in data set [3] (Patient #8, terminal, one year at maximum dosage) is reported as “Patient initially showed signs of being cured”; in [3] (Patient #12, maximum level, one year) it was “Patient initially showed signs of being cured”. Also, the entries for the “time to relapse after completion of therapy” value in [3] (Patient #8) and in data set [3] (Patient #12) were “two” and “about 2 years”, respectively. The overall bloodwork result in data set [3] (Patient #13, no improvement with prior chemotherapy) was “immediately overall bloodwork returned to normal parameters”. Further, in the data set on Multiple Myelomas (Patient #19, metastasis in hips and ribs, maximum levels, three month period, no other therapy), the “X-rays at the end of the therapy” value was “actual regeneration of skeletal tissue and structure”. In addition, the “time to death of Myeloma after stopping treatment” value with Multiple Myelomas (Patient #19, refused treatment after three months) is “four”. In addition, the skeletal finding entry in data set [6] (Patient #20, metastasis in lungs and ribs, terminal, maximum levels, after 20 days of therapy) was “regeneration of ribs had occurred”. In addition, in data set [6] (Patient #20, after one month of therapy), the functional status result is recorded as “the patient had returned to normal daily activities”. Moreover, in data set [6] (Patient #20, therapy discontinued at three months), the survival after therapy entry is listed as “two”. Also, in the data set with Carcinoma of the Bladder (Patient #21, refused surgery, maximum dosage, first three month check-up), the “carcinoma size by cystoscopic exam” value is “the carcinoma had diminished in size”. In addition, in data set [1], the “TPA-induced DNA synthesis” value was “inhibited”. The TPA-induced hydroperoxide production result in data set [1] was “inhibited”. Besides, the “TPA-induced ornithine decarboxylase activity” value in data set [1] is “inhibited”. The “incidence and yield of skin tumors promoted by TPA” value in data set [2] was “inhibited”. Also, the cell growth result with HeLa cells (HeLa) and in the data set with Raji lymphoma cells was “inhibited” each time. The “potency relative to gallic acid” value with HeLa cells (HeLa) and in the data set with Raji lymphoma cells was “twice as potent as its monomer gallic acid” in each case. Further, the PAH-DNA adduct formation result in data set [7] is “substantial inhibition”. In [7], the PAH-induced skin tumorigenesis result was “substantial inhibition”. For the same compound, in [7], the “epidermal PAH metabolism” value was “substantial inhibition”.
